Experimental data published in patent publication US7510833B2, “Method for examining obesity or leanness” (Banyu Pharmaceutical Co., Ltd., priority 2003, dated 2009).

Assays:
Type in all cases: in vivo, mouse
MCP-1 = assay: Expression of MCP-1 in white adipocytes of mice i.c.v. administered with NPY Y5 agonist (TaqMan PCR); details: 5 μg/day i.c.v., non-treated C57BL/6N set to 1
Description: Model mice displaying obesity were constructed by the administration of NPY Y5 agonist in the manner described below.
Male mice (9-12 weeks old) (C57BL/6J, CLEA, Inc.) were bred at one animal per plastic cage under the conditions of: room temperature 23±2° C.; and humidity 55±15%. The light-dark cycle during breeding period was set to be 12 hours and the light was put on at 7 a.m. and turned off at 7 p.m. Mice were allowed access to ad lib feed (CE-2 (protein: 25.4 wt. %; carbohydrate: 50.3 wt. %; lipid: 4.4 wt. %), CLEA, Inc.) and water.
Mice were anesthetized with 80 mg/kg of sodium pentobarbital (Dinabott Inc.) and were locally implanted with sterilized 28-gage brain fusion cannulas (Alzet) at their right cerebral ventricles. The cannula was fixed vertically relative to the cranical bone at the position 0.4 mm behind and 0.8 mm side of the bregma and 2 mm deep. The cannula was fixed to the ventricle with dental cement. The cannula was connected to an osmotic pump (model no. 2002 manufactured by Alzet) filled with 10 mM phosphate buffer containing 0.05% bovine serum albumin via a polyvinylchloride tube. […]
The quantitative analysis of the expression amount of MCP-1 was performed by TaqMan PCR, using cDNA obtained from the white adipocytes according to RT-PCR. […]

leptin = assay: Expression of leptin in white adipocytes of mice i.c.v. administered with NPY Y5 agonist; details: 5 μg/day i.c.v., non-treated C57BL/6N set to 1
[1] = system: CD11b positive blood cells (monocytes/macrophages); assay: Expression analysis of CD11b by flow cytometry in mice administered with MCP-1; details: subcutaneous infusion by osmotic pump, 10 ng/0.5 μl/hr over 2 weeks; versus saline-administered control mice; FIG. 10(d)-(f)
Description: The analysis using flow cytometry was performed to study how the count of CD11b, which was a surface antigen of macrophages, or blood monocytes would vary upon administration of MCP-1.
Mice were first subcutaneously infused with. MCP-1, using an osmotic pump, at the rate of 10 ng/0.5 μl/hr over 2 weeks. Next, blood was collected from the tail veins of the control mice (C57BL/6), the DIO mice and the MCP-1 treated mice, respectively, using a heparinized capillary. After blood cells were collected from the blood by centrifugation at 300×g for 5 minutes, they were incubated with the FITC-labeled anti-mouse CD11b antibody (BD Biosciences) at room temperature for 15 minutes. The samples were incubated with the IgG2b isotype to serve as a non-specific binding control. After washing these cells with PBS, erythrocytes were lyzed with a lysis buffer at room temperature for 5 minutes. After washing the cells with PBS, the cells were suspended in PBS containing 0.5% formaldehyde. Flow cytometry was performed on this suspension, using an EPCIS Elite Flow Cytometer (Beckman Coulter, Inc.), to identify monocytes. Here, the analysis by flow cytometry was carried out by determining the population of monocytes/macrophages in the whole blood cells. In the flow cytometry 40,000 cells per each sample were analyzed with the fluorescence and scattered light as indices. […]

Row | Substance | Expression amount of MCP-1 (MCP-1; Y5 agonist FF (ad lib fed)) | Expression amount of MCP-1 (MCP-1; Y5 agonist PF (pair feeding)) | Expression amount of leptin (leptin; Y5 agonist FF (ad lib fed)) | Expression amount of leptin (leptin; Y5 agonist PF (pair feeding)) | CD11b positive blood cell count [1]
1 | D-Try^34 NPY [Y5 agonist] | 7.67 | 5.16 | 3.53 | 1.77 | –
2 | MCP-1: monocyte chemotaxis factor protein of the CC chemokine subfamily, subcutaneously infused into mice | – | – | – | – | increases
